The values that follow come from ChEMBL document CHEMBL1158552, “Transkarbams as transdermal permeation enhancers: effects of ester position and ammonium carbamate formation” (Bioorg Med Chem Lett, 2010).

Structures are written as SMILES.

Data set [1] is described as follows: Potentiation of theophylline transdermal permeation in pig ear skin by Franz diffusion cells method. It is filed as ADME, cell-based, Sus scrofa. The conditions noted are these: artificial membrane.
Data set [2] can be described thus: Potentiation of theophylline transdermal permeation in pig ear skin at pH 7 by Franz diffusion cells method. The format is ADME, Sus scrofa. To be noted: artificial membrane.

With `CCCCCCCCCCCCCOC(=O)CCCCN`, the figures for the Activity entry in data set [1] and in data set [2] were “Active” and “Not Active”, respectively.

Take `CCCCCCOC(=O)CCCCCCCCCCCN`: the Activity entry in data set [1] is reported as “Active”; in data set [2], “Not Active”.

On to `CCCCCCCCCCCOC(=O)CCCCCCN.Cl`, for which the result in data set [1] and in data set [2] was Active.

Turning to `CCCCCCCCCCOC(=O)CCCCCCCN.Cl`, the outcome in data set [1] and in data set [2] was Active.

For the compound `CCCCCCCCCCOC(=O)CCCCCCCN`, the figures for the Activity entry in data set [1] and in data set [2] were “Active” and “Not Active”, respectively.

With `CCCCCCCCCCCCCCCOC(=O)CCN.Cl`, the result in data set [2] was Active.

On to `CCCCCCCCCCCCCOC(=O)CCCCN.Cl`, for which, in data set [2], the result was Active.

For the compound `CCCCCCCCOC(=O)CCCCCCCCCN.Cl`, the outcome in data set [2] was Active.

With `CCCCCCCCOC(=O)CCCCCCCCCN`, the Activity result is listed as “Active” in data set [1] and “Not Active” in data set [2].

With `CCCCCCCCCCCCOC(=O)CCCCCN.Cl`, the result in data set [1] and in data set [2] was Active.

`CCCCCCOC(=O)CCCCCCCCCCCN.Cl`: the outcome in data set [2] was Active.

On to `CCCCCCCCCCCOC(=O)CCCCCCN`, for which the values for the Activity result in data set [1] and in data set [2] were “Active” and “Not Active”, respectively.

On to `CCCCCCCCCCCCCCOC(=O)CCCN`, for which the Activity entry in data set [1] was “Active”; in data set [2] it was “Not Active”.

In the case of `CCCCCCCCCCCCCCCOC(=O)CCN`, the Activity result is reported as “Active” in data set [1] and “Not Active” in data set [2].

Take `CCCCCCCCCCCCOC(=O)CCCCCN`: the Activity entry was “Active” in data set [1] and “Not Active” in data set [2].

`CCCCCCCCCCCCCCOC(=O)CCCN.Cl`: in data set [2], the outcome was Active.
